Data reported in US7776847B2, “Benzisothiazoles useful for treating or preventing HCV infection” (priority 2005, dated 2010).

System: HCV replicon
Assay: HCV replicon luciferase reporter assay
Type: cell-based
Details: Hepatitis C virus, Table 5; read-out: IC50
Experimental: The inhibitory activity of certain exemplary compounds of the invention was confirmed using an HCV replicon assay. The HCV replicon can include such features as the HCV IRES, the HCV 3′ untranslated region, selected HCV genes encoding HCV polypeptides, selectable markers, and a reporter gene such as luciferase, GFP, etc. In the assay, actively dividing replicon-comprising cells were seeded at a density of between about 5,000 and 7,500 cells/well onto 96 well plates (about 90 μl of cells per well) and incubated at 37° C. and 5% CO2 for 24 hours. Then, the test compound (in a volume of about 10 μL) was added at various concentrations to each well and the cells were incubated for an additional 24-48 hours. The cells were harvested, and HCV replication or translation was monitored via a reporter assay, e.g., a luciferase reporter assay. The media was aspirated from each cell and Bright-Glo ([…].) luciferase assay reagents were added to each well according to the manufacturer's instructions. In this assay, the amount of test compound that yielded a 50% reduction in luciferase activity (IC50) was determined.

COC(=O)c1cnc(NCCCNc2nsc3ccccc23)cc1C(F)(F)F [Compound 284, methyl 6-(3-(benzo[d]isothiazol-3-ylamino)propylamino)-4-(trifluoromethyl)nicotinate] showed an IC50 of under 5 µM.

COc1ccc(C(=O)NCCCNc2nsc3ccccc23)cc1OC1CCCC1 [Compound 286, N-(3-(benzo[d]isothiazol-3-ylamino)propyl)-3-(cyclopentyloxy)-4-methoxybenzamide] gave an IC50 of under 5 µM.

With Brc1ccc(CNCCCNc2nsc3ccccc23)cc1 [Compound 287, N^1-(benzo[d]isothiazol-3-yl)-N^3-(4-bromobenzyl)propane-1,3-diamine] the IC50 was under 5 µM.

Molecule CCCCc1ccc(CNCCCNc2nsc3ccccc23)cc1 [Compound 288, N^1-(benzo[d]isothiazol-3-yl)-N^3-(4-butylbenzyl)propane-1,3-diamine] has an IC50 of under 5 µM.

In the case of O=C(NCCCNc1nsc2ccccc12)c1ccc(Br)cc1 [Compound 289, N-(3-(benzo[d]isothiazol-3-ylamino)propyl)-4-bromobenzamide], the IC50 is reported as under 5 µM.

For CCCNc1ccc(C(=O)NCCCNc2nsc3ccccc23)cc1 [Compound 290, N-(3-(benzo[d]isothiazol-3-ylamino)propyl)-4-(propylamino)benzamide], the IC50 was under 5 µM.

COc1ccc(-c2ccc(CNCCCNc3nsc4ccccc34)cc2)cc1 [Compound 291, N^1-(benzo[d]isothiazol-3-yl)-N^3-((4′-methoxybiphenyl-4-yl)methyl)propane-1,3-diamine] was tested, and the IC50 was under 5 µM.

In the case of COc1ccc(-c2ccc(CNCCCNc3nsc4ccccc34)cc2)cc1OC [Compound 292, N^1-(benzo[d]isothiazol-3-yl)-N^3-((3′,4′-dimethoxybiphenyl-4-yl)methyl)propane-1,3-diamine], the IC50 is reported as under 5 µM.

CCCCc1ccc(CN(CCCNc2nsc3ccccc23)C(=O)c2ccccn2)cc1 [Compound 293, N-(3-(benzo[d]isothiazol-3-ylamino)propyl)-N-(4-butylbenzyl)picolinamide] was tested, and the IC50 was under 5 µM.

With COc1ccc(Cl)cc1-c1ccc(CNCCCNc2nsc3ccccc23)cc1 [Compound 294, N^1-(benzo[d]isothiazol-3-yl)-N^3-((5′-chloro-2′-methoxybiphenyl-4-yl)methyl)propane-1,3-diamine] the IC50 was under 5 µM.

For CCCCc1ccc(NCCCNc2nsc3ccccc23)cc1 [Compound 295, N^1-(benzo[d]isothiazol-3-yl)-N^3-(4-butylphenyl)propane-1,3-diamine], the IC50 was under 5 µM.

CCN1CCN(c2ccc(C(=O)NCCCNc3nsc4ccccc34)cc2)CC1 [Compound 296, N-(3-(benzo[d]isothiazol-3-ylamino)propyl)-4-(4-ethylpiperazin-1-yl)benzamide] gave an IC50 of under 5 µM.

Molecule O=C(NCCCNc1nsc2ccccc12)c1ccc(NCc2ccccn2)cc1 [Compound 297, N-(3-(benzo[d]isothiazol-3-ylamino)propyl)-4-(pyridin-2-ylmethylamino)benzamide] has an IC50 of under 5 µM.

Molecule CC(C)Nc1ccc(C(=O)NCCCNc2nsc3ccccc23)cc1 [Compound 298, N-(3-(benzo[d]isothiazol-3-ylamino)propyl)-4-(isopropylamino)benzamide] has an IC50 of under 5 µM.

In the case of Brc1cccc(CNCCCNc2nsc3ccccc23)c1 [Compound 299, N^1-(benzo[d]isothiazol-3-yl)-N^3-(3-bromobenzyl)propane-1,3-diamine], the IC50 is reported as under 5 µM.

In the case of COc1ccc(-c2cccc(CNCCCNc3nsc4ccccc34)c2)cc1 [Compound 300, N^1-(benzo[d]isothiazol-3-yl)-N^3-((4′-methoxybiphenyl-3-yl)methyl)propane-1,3-diamine], the IC50 is reported as under 5 µM.

With COc1ccc(-c2cccc(CNCCCNc3nsc4ccccc34)c2)cc1OC [Compound 301, N^1-(benzo[d]isothiazol-3-yl)-N^3-((4′,5′-dimethoxybiphenyl-3-yl)methyl)propane-1,3-diamine] the IC50 was under 5 µM.

In the case of COc1ccc(Cl)cc1-c1cccc(CNCCCNc2nsc3ccccc23)c1 [Compound 302, N^1-(benzo[d]isothiazol-3-yl)-N^3-((3′-chloro-6′-methoxybiphenyl-3-yl)methyl)propane-1,3-diamine], the IC50 is reported as under 5 µM.

Work on Oc1ccc(Br)cc1CNCCCNc1nsc2ccccc12 [Compound 303, 2-((3-(benzo[d]isothiazol-3-ylamino)propylamino)methyl)-4-bromophenol] yielded an IC50 of under 5 µM.

In the case of COc1ccc(CNCCCNc2nsc3ccccc23)cc1O [Compound 304, 5-((3-(benzo[d]isothiazol-3-ylamino)propylamino)methyl)-2-methoxyphenol], the IC50 is reported as under 5 µM.

Work on c1ccc(CN2CCCC(NCCCNc3nsc4ccccc34)C2)cc1 (stereo not shown) [Compound 306, N^1-(benzo[d]isothiazol-3-yl)-N^3-(1-benzylpiperidin-3-yl)propane-1,3-diamine] yielded an IC50 of under 5 µM.

Work on CC(C)(C)OC(=O)N1CCC(NCCCNc2nsc3ccccc23)CC1 [Compound 307, tert-butyl 4-(3-(benzo[d]isothiazol-3-ylamino)propylamino)piperidine-1-carboxylate] yielded an IC50 of under 5 µM.

For c1cncc(CNCCCNc2nsc3ccccc23)c1 [Compound 308, N^1-(benzo[d]isothiazol-3-yl)-N^3-(pyridin-3-ylmethyl)propane-1,3-diamine], the IC50 was over 5 µM.

For c1ccc(CNCCCNc2nsc3ccccc23)nc1 [Compound 309, N^1-(benzo[d]isothiazol-3-yl)-N^3-(pyridin-2-ylmethyl)propane-1,3-diamine], the IC50 was over 5 µM.

With CCCCOc1cc(C(=O)NCCNc2nsc3ccc(NCCC)cc23)ccc1OC [Compound 310, 3-butoxy-4-methoxy-N-(2-(5-(propylamino)benzo[d]isothiazol-3-ylamino)ethyl)benzamide] the IC50 was under 5 µM.

O=C1NC(CNc2nsc3ccccc23)C(=O)N1c1ccc(I)cc1 (stereo not shown) [Compound 311, 5-((benzo[d]isothiazol-3-ylamino)methyl)-3-(4-iodophenyl)imidazolidine-2,4-dione] showed an IC50 of over 5 µM.

With COc1ccc(-c2ccccc2CNCCCNc2nsc3ccccc23)cc1 [Compound 312, N^1-(benzo[d]isothiazol-3-yl)-N^3-((4′-methoxybiphenyl-2-yl)methyl)propane-1,3-diamine] the IC50 was under 5 µM.

For COc1ccc(-c2ccccc2CNCCCNc2nsc3ccccc23)cc1OC [Compound 313, N^1-(benzo[d]isothiazol-3-yl)-N^3-((3′,4′-dimethoxybiphenyl-2-yl)methyl)propane-1,3-diamine], the IC50 was under 5 µM.

Work on COc1ccc(-c2ccc(CN(CCCNc3nsc4ccccc34)C(=O)N3CCOCC3)cc2)cc1 [Compound 314, N-(3-(benzo[d]isothiazol-3-ylamino)propyl)-N-((4′-methoxybiphenyl-4-yl)methyl)morpholine-4-carboxamide] yielded an IC50 of under 5 µM.

With COc1ccc(-c2ccc(CN(CCCNc3nsc4ccccc34)C(=O)N(C)C)cc2)cc1 [Compound 315, 1-(3-(benzo[d]isothiazol-3-ylamino)propyl)-1-((4′-methoxybiphenyl-4-yl)methyl)-3,3-dimethylurea] the IC50 was under 5 µM.

For COc1ccc(-c2ccc(CN(CCCNc3nsc4ccccc34)S(=O)(=O)c3cn(C)c(C)n3)cc2)cc1 [Compound 316, N-(3-(benzo[d]isothiazol-3-ylamino)propyl)-N-((4′-methoxybiphenyl-4-yl)methyl)-1,2-dimethyl-1H-imidazole-4-sulfonamide], the IC50 was under 5 µM.

COC(=O)c1ccc(S(=O)(=O)N(CCCNc2nsc3ccccc23)Cc2ccc(-c3ccc(OC)cc3)cc2)n1C [Compound 317, methyl 5-(N-(3-(benzo[d]isothiazol-3-ylamino)propyl)-N-((4′-methoxybiphenyl-4-yl)methyl)sulfamoyl)-1-methyl-1H-pyrrole-2-carboxylate] was tested, and the IC50 was under 5 µM.

With COc1ccc(-c2ccc(CN(CCCNc3nsc4ccccc34)C(=O)CC#N)cc2)cc1 [Compound 319, N-(3-(benzo[d]isothiazol-3-ylamino)propyl)-2-cyano-N-((4′-methoxybiphenyl-4-yl)methyl)acetamide] the IC50 was under 5 µM.

Molecule COc1ccc(-c2ccc(CN(CCCNc3nsc4ccccc34)C(=O)CC3CCCN3)cc2)cc1 (stereo not shown) [Compound 320, N-(3-(benzo[d]isothiazol-3-ylamino)propyl)-N-((4′-methoxybiphenyl-4-yl)methyl)-2-(pyrrolidin-2-yl)acetamide] has an IC50 of under 5 µM.

CCCCc1ccc(C(=O)NCCCNc2n[s+]([O-])c3ccccc23)cc1 (stereo not shown) [Compound 321, 4-butyl-N-{3-[(1-oxido-1,2-benzisothiazol-3-yl)amino]propyl}benzamide] was tested, and the IC50 was over 5 µM.

For CCCCc1ccc(C(=O)NCCCNC2=NS(=O)(=O)c3ccccc32)cc1 [Compound 322, 4-butyl-N-{3-[(1,1-dioxido-1,2-benzisothiazol-3-yl)amino]propyl}benzamide], the IC50 was over 5 µM.

Molecule COc1ccc(-c2ccc(CNCCCNC3=NS(=O)(=O)c4ccccc43)cc2)cc1 [Compound 324, N-(1,1-dioxido-1,2-benzisothiazol-3-yl)-N′-[(4′-methoxybiphenyl-4-yl)methyl]propane-1,3-diamine] has an IC50 of over 5 µM.

For O=S(=O)(NCCCNc1nsc2ccccc12)c1ccc(I)cc1 [Compound 325, N-(3-(benzo[d]isothiazol-3-ylamino)propyl)-4-iodobenzenesulfonamide], the IC50 was under 5 µM.

In the case of FC(F)(F)c1ccccc1CNCCCNc1nsc2ccccc12 [Compound 326, N^1-(benzo[d]isothiazol-3-yl)-N^3-(2-(trifluoromethyl)benzyl)propane-1,3-diamine], the IC50 is reported as under 5 µM.

COc1cc(CNCCCNc2nsc3ccccc23)c(OCc2ccccc2)cc1OC [Compound 327, N^1-(benzo[d]isothiazol-3-yl)-N^3-(2-(benzyloxy)-4,5-dimethoxybenzyl)propane-1,3-diamine] gave an IC50 of under 5 µM.
